Test results as given in publication PMC2607018, “Iodine Atoms: A New Molecular Feature for the Design of Potent Transthyretin Fibrillogenesis Inhibitors” (PLoS ONE, 2009).

molecular target: TTR variant Y78F (Homo sapiens, UniProt P02766, Y98F); experiment: Kinetic turbidity assay of acid induced fibril formation; assay type: biochemical; details: fibrillogenesis inhibition assay, effect of iodination; read-out: Inhibitory efficiency, rough screening (Figure 3, measure not given)
Text: Two different parameters can be derived from this kinetic test. The IC50 value is the inhibitor concentration at which the initial rate of fibril formation is half than that in the absence of inhibitor. In turn, RA (%) can be defined as the percent reduction of fibril formation rate at high inhibitor concentration relative to the rate at zero concentration of tested compound.
An in vitro turbidimetric test in a high troughput mode was used to assess the fibrillogenesis inhibition potency of the compounds of the library. The mutant protein TTRY78F was incubated with various concentrations of test compounds in 96 well microplates. After lowering the pH of the solutions to 4.2, the incubation was extended for 1.5 h while recording the absorbance at 340 nm at 1 min intervals. […] (Figure S1).
The mutant Y78F TTR protein (0.4 mg.mL^-1) was incubated for 30 min (pH 7.6, 37 °C) with 6 concentrations of test compounds ranging from 0 to 40 µM in 96-well microplates.
IC50% value is the inhibitor concentration at which the initial rate of fibril formation is half of that in the absence of inhibitor. RA(%) is the percentage of reduction in fibril formation rate induced by a given concentration of test compound relative to the rate of experiments at zero concentration of test compound.

IC50 [µM] | SMILES
49 | O=C(O)c1ccc(-c2ccccc2)cc1 [Biphenyl carboxylic, reference compound]
10.9 | O=C(O)c1ccccc1Nc1cccc(C(F)(F)F)c1 [Flufenamic, reference compound]
> 100 | CC(C(=O)O)c1ccc(-c2ccccc2)c(F)c1 (centres unmarked) [Flurbiprofen, reference compound]
29 | O=C(O)c1ccc(Oc2ccccc2)cc1 [Phenoxybenzoic, reference compound]
> 100 | O=C(O)c1ccccc1O [reference compound]

same assay, conditions: inhibitor concentration at which the initial rate of fibril formation is half; Y78F TTR 0.4 mg/mL, pH 4.2, 37 °C; read-out: Kinetic turbidity assay IC50

IC50 [µM] | SMILES
> 50 | NC(=O)c1cc(-c2ccc(F)cc2F)ccc1O [2a, 2’,4’-difluoro-4-hydroxy-[1,1’]-biphenyl-3-carboxamide]
12.4 | NC(=O)c1cc(-c2ccc(F)cc2F)cc(I)c1O [2b, 2’,4’-difluoro-4-hydroxy-5-iodo-[1,1’]-biphenyl-3-carboxamide]
> 50 | COC(=O)c1cc(-c2ccc(F)cc2F)ccc1O [3a, 2’,4’-difluoro-4-hydroxy-[1,1’]-biphenyl-3-carboxylic methyl ester]
6.1 | COC(=O)c1cc(-c2ccc(F)cc2F)cc(I)c1O [3b, 2’,4’-difluoro-4-hydroxy-5-iodo-[1,1’]-biphenyl-3-carboxylic methyl ester]
> 50 | CCOC(=O)c1cc(-c2ccc(F)cc2F)ccc1O [4a, 2’,4’-difluoro-4-hydroxy-[1,1’]-biphenyl-3-carboxylic acid ethyl ester]
6.9 | CCOC(=O)c1cc(-c2ccc(F)cc2F)cc(I)c1O [4b]
> 50 | Nc1ccc(-c2ccc(F)cc2F)cc1C(=O)O [5a, 2’,4’-difluoro-4-amino-[1,1’]-biphenyl-3-carboxylic acid]
16.3 | Nc1c(I)cc(-c2ccc(F)cc2F)cc1C(=O)O [5b, 2’,4’-difluoro-4-amino-3-iodo-[1,1’]-biphenyl-3-carboxylic acid]
41 | COC(=O)c1cc(-c2ccc(F)cc2F)ccc1N [6a, 2’,4’-difluoro-4-amino-[1,1’]-biphenyl-3-carboxylic acid methyl ester]
7.5 | COC(=O)c1cc(-c2ccc(F)cc2F)cc(I)c1N [6b, 2’,4’-difluoro-4-amino-3-iodo-[1,1’]-biphenyl-3-carboxylic acid methyl ester]
> 50 | O=C(O)CNC(=O)c1cc(-c2ccc(F)cc2F)ccc1O [8a, N-[2’,4’-difluoro-4-hydroxy-[1,1’]-biphenyl-3-carbonyl]-glycine]
11.1 | O=C(O)CNC(=O)c1cc(-c2ccc(F)cc2F)cc(I)c1O [8b, N-[2’-,4’-difluoro-4-hydroxy-5-iodo-[1,1’]-biphenyl-3-carbonyl]-glycine]
> 50 | C[C@H](NC(=O)c1cc(-c2ccc(F)cc2F)ccc1O)C(=O)O [9a, N-[2’,4’-difluoro-4-hydroxy-[1,1’]-biphenyl-3-carbonyl]-L-alanine]
5.8 | CC(NC(=O)c1cc(-c2ccc(F)cc2F)cc(I)c1O)C(=O)O [9b, N-[2’,4’-difluoro-4-hydroxy-5-iodo-hydroxy-[1,1’]-biphenyl-3-carbonyl]-L-alanine]
> 50 | COC(=O)[C@H](C)NC(=O)c1cc(-c2ccc(F)cc2F)ccc1O [10a, N-[2’,4’-difluoro-4-hydroxy-[1,1’]-biphenyl-3-carbonyl]-L-alanine methyl ester]
5.5 | COC(=O)[C@H](C)NC(=O)c1cc(-c2ccc(F)cc2F)cc(I)c1O [10b, N-[2’,4’-difluoro-4-hydroxy-5-iodo-[1,1’]-biphenyl-3-carbonyl] -L-alanine methyl ester]
> 50 | CCOC(=O)[C@H](C)NC(=O)c1cc(-c2ccc(F)cc2F)ccc1O [11a, N-[2’,4’-difluoro-4-hydroxy-[1,1’]-biphenyl-3-carbonyl]-L-alanine ethyl ester]
> 50 | CC(C)C[C@H](NC(=O)c1cc(-c2ccc(F)cc2F)ccc1O)C(=O)O [12a, N-[2’,4’-difluoro-4-hydroxy-[1,1’]-biphenyl-3-carbonyl]-L-leucine]
5 | CC(C)C[C@H](NC(=O)c1cc(-c2ccc(F)cc2F)cc(I)c1O)C(=O)O [12b, N-[2’,4’-difluoro-4-hydroxy-5-iodo-[1,1’]-biphenyl-3-carbonyl]-L-leucine]
> 50 | CC(C)CC(NC(=O)c1cc(-c2ccc(F)cc2F)ccc1O)C(=O)OC(C)(C)C [13a, N-[2’,4’-difluoro-4-hydroxy-[1,1’]-biphenyl-3-carbony]-L-leucine tert-butyl ester]

IC50 [µM] | SMILES
> 50 | CC(C)CC(NC(=O)c1cc(-c2ccc(F)cc2F)cc(I)c1O)C(=O)OC(C)(C)C [13b, N-[2’-,4’-difluoro-4-hydroxy-5-iodo-[1,1’]-biphenyl-3-carbonyl)-L-leucine tert-butyl ester]
> 50 | O=C(NC(CO)C(=O)O)c1cc(-c2ccc(F)cc2F)ccc1O (centres unmarked) [14a]
3.7 | O=C(N[C@@H](CO)C(=O)O)c1cc(-c2ccc(F)cc2F)cc(I)c1O [14b, N-[2’,4’-difluoro-4-hydroxy-5-iodo-[1,1’]-biphenyl-3-carbonyl]–L-serine]
> 50 | COC(=O)[C@H](CO)NC(=O)c1cc(-c2ccc(F)cc2F)ccc1O [15a, N-[2’,4’-difluoro-4-hydroxy-[1,1’]-biphenyl-3-carbonyl]-L-serine methyl ester]
7.2 | COC(=O)[C@H](CO)NC(=O)c1cc(-c2ccc(F)cc2F)cc(I)c1O [15b, N-[2’,4’-difluoro-4-hydroxy-5-iodo-[1,1’]-biphenyl-3-carbonyl]-L-serine methyl ester]
> 50 | O=C(O)C[C@H](NC(=O)c1cc(-c2ccc(F)cc2F)ccc1O)C(=O)O [16a, N-[2’,4’-difluoro-4-hydroxy-[1,1’]-biphenyl-3-carbonyl]-L-aspartic]
5.2 | O=C(O)CC(NC(=O)c1cc(-c2ccc(F)cc2F)cc(I)c1O)C(=O)O [16b, N-[2’-,4’-difluoro-4-hydroxy-5-iodo-[1,1’]-biphenyl-3-carbonyl]-L-aspartic]
> 50 | COC(=O)C(CC(=O)O)NC(=O)c1cc(-c2ccc(F)cc2F)ccc1O [17a, N-[2’,4’-difluoro-4-hydroxy-[1,1’]-biphenyl-3-carbonyl]-L-aspartic α-methyl ester]
4.1 | COC(=O)C(CC(=O)O)NC(=O)c1cc(-c2ccc(F)cc2F)cc(I)c1O [17b, N-[2’,4’-difluoro-4-hydroxy-5-iodo-[1,1’]-biphenyl-3-carbonyl]-L-aspartic α-methyl ester]
38.3 | CC(C)(C)OC(=O)CC(NC(=O)c1cc(-c2ccc(F)cc2F)ccc1O)C(=O)O [18a, N-[2’,4’-difluoro-4-hydroxy-[1,1’]-biphenyl-3-carbonyl]-L-aspartic β-tert-butyl ester]
6 | CC(C)(C)OC(=O)CC(NC(=O)c1cc(-c2ccc(F)cc2F)cc(I)c1O)C(=O)O [18b, N-[2’,4’-difluoro-4-hydroxy-5-iodo-[1,1’]-biphenyl-3-carbonyl]-L-aspartic β-tert-butyl ester]
> 50 | COC(=O)C(CC(=O)OC(C)(C)C)NC(=O)c1cc(-c2ccc(F)cc2F)ccc1O [19a, N-[2-,4’-difluoro-4-hydroxy-[1,1’]-biphenyl-3-carbonyl]-L-aspartic α-methyl ester and β-tert-butyl ester]
> 50 | NC(=O)C[C@H](NC(=O)c1cc(-c2ccc(F)cc2F)ccc1O)C(=O)O [20a, N-[2’,4’-difluoro-4-hydroxy-[1,1’]-biphenyl-3-carbonyl]-L-asparagine]
7.7 | NC(=O)CC(NC(=O)c1cc(-c2ccc(F)cc2F)cc(I)c1O)C(=O)O [20b, N-[2’-,4’-difluoro-4-hydroxy-5-iodo-[1,1’]-biphenyl-3-carbonyl]-L-asparagine]
> 50 | CC(C)(C)OC(=O)[C@H](CC(N)=O)NC(=O)c1cc(-c2ccc(F)cc2F)ccc1O [21a, N-[2’,4’-difluoro-4-hydroxy-[1,1’]-biphenyl-3-carbonyl]-L-asparagine tert-butyl ester]
9.7 | CC(C)(C)OC(=O)[C@H](CC(N)=O)NC(=O)c1cc(-c2ccc(F)cc2F)cc(I)c1O [21b, N-[2’,4’-difluoro-4-hydroxy-5-iodo-[1,1’]-biphenyl-3-carbonyl]-L-asparagine tert-butyl ester]
> 50 | O=C(O)CCNC(=O)c1cc(-c2ccc(F)cc2F)ccc1O [22a]
> 50 | COC(=O)CCNC(=O)c1cc(-c2ccc(F)cc2F)ccc1O [23a, N-[2’,4’-difluoro-4-hydroxy-[1,1’]-biphenyl-3-carbonyl]-β-alanine methyl ester]
> 50 | NC(Cc1ccc(Oc2ccc(O)cc2)cc1)C(=O)O (centres unmarked) [T0, thyronine, reference compound]
3.2 | Oc1c(I)cc(I)cc1I [TIP, triiodophenol, reference compound]

SMILES | IC50 [µM]
CC(=O)Oc1ccc(-c2ccc(F)cc2F)cc1C(=O)O [7a, 4-Acetoxy-2’,4’-difluoro-[1,1’]-biphenyl-3-carboxylic acid] | > 50
CC(=O)Oc1c(I)cc(-c2ccc(F)cc2F)cc1C(=O)O [7b, 4-Acetoxy-2’,4’-difluoro-5-iodo-[1,1’]-biphenyl-3-carboxylic acid] | 4.8
